Common to all, as to format: functional, cell-based
One assay deals with U-937. The assay can be described thus: Cytotoxicity against human U-937 cells assessed as reduction in cell growth incubated for 48 hrs by CCK-8 assay. Particulars: U-937, 48 h.
A further assay relates to PC-3. The assay can be described thus: Cytotoxicity against human PC-3 cells assessed as reduction in cell growth incubated for 48 hrs by CCK-8 assay. The following applies: PC-3, 48 h.
Assay [1] deals with HeLa. Kind of assay: Cytotoxicity against human HeLa cells assessed as cell growth inhibition.
The next assay has as its system L1210. The assay can be described thus: Cytotoxicity against mouse L1210 assessed as cell growth inhibition.
For assay [2], the system named is A549. Kind of assay: Antiproliferative activity against human A549 cells assessed as reduction in cell viability incubated for 72 hrs by SRB assay. The following applies: A549, 72 h.
In another assay the test system is HT-29. Kind of assay: Antiproliferative activity against human HT-29 cells assessed as reduction in cell viability incubated for 72 hrs by SRB assay. Particulars: HT-29, 72 h.
A further assay concerns MDA-MB-231. Kind of assay: Antiproliferative activity against human MDA-MB-231 cells assessed as reduction in cell viability incubated for 72 hrs by SRB assay. The following applies: MDA-MB-231, 72 h.
The test system of a further assay is Bel-7402. Kind of assay: Cytotoxicity against human Bel-7402 cells assessed as reduction in cell growth incubated for 72 hrs measured by MTT assay. The following applies: Bel-7402, 72 h.
Assay [3] relates to HepG2. The assay can be described thus: Antiproliferative activity against human HepG2 cells assessed as reduction in cell viability by CCK-8 assay.
Assay [4] relates to A549. The assay can be described thus: Cytotoxicity against human A549 cells assessed as reduction in cell viability incubated for 48 hrs by MTT assay. The following applies: A549, 48 h.
In assay [5] the test system is HCT-116. Kind of assay: Cytotoxicity against human HCT-116 cells assessed as reduction in cell viability incubated for 48 hrs by MTT assay. The following applies: HCT-116, 48 h.
Assay [6] concerns A549. Kind of assay: Cytotoxicity against human A549 cells assessed as reduction in cell viability incubated for 24 hrs by CCK-8 assay. The following applies: A549, 24 h.
Assay [7] deals with HeLa. The assay can be described thus: Cytotoxicity against human HeLa cells assessed as reduction in cell viability incubated for 24 hrs by CCK-8 assay.
The test system of assay [8] is HCT-116. The assay can be described thus: Antiproliferative activity against human HCT-116 cells assessed as reduction in cell growth.
The subject of the next assay is AGS. Kind of assay: Antiproliferative activity against human AGS cells assessed as reduction in cell viability measured for 48 hrs by Cell-Titer Glo assay.
The subject of assay [9] is A549. The assay can be described thus: Antiproliferative activity against human A549 cells assessed as reduction in cell viability incubated for 72 hrs by CCK-8 assay. Particulars: A549, 72 h.
Assay [10] relates to MCF7. The assay can be described thus: Antiproliferative activity against human MCF7 cells assessed as reduction in cell viability incubated for 72 hrs by MTT assay. Particulars: MCF7, 72 h.
A further assay deals with HEK293. The assay can be described thus: Cytotoxicity against HEK293 cells assessed as cell growth inhibition. The following applies: Homo sapiens.
Assay [11] relates to HCT-116. Kind of assay: Cytotoxicity against human HCT-116 cells assessed as reduction in cell viability incubated for 24 hrs by MTT assay. The following applies: HCT-116, 24 h.
Another assay relates to RKO. The assay can be described thus: Cytotoxicity against human RKO cells assessed as inhibition of cell growth measured after 48 hrs by MTT assay.
Another assay deals with SF-268. The assay can be described thus: Cytotoxicity against human SF-268 cells assessed as inhibition of cell growth incubated for 72 hrs by SRB assay. The following applies: SF-268, 72 h.
For assay [12], the system named is MCF7. Kind of assay: Cytotoxicity against human MCF7 cells assessed as inhibition of cell growth incubated for 72 hrs by SRB assay. The following applies: MCF7, 72 h.
Assay [13] relates to A549. The assay can be described thus: Cytotoxicity against human A549 cells assessed as inhibition of cell growth incubated for 72 hrs by SRB assay. Particulars: A549, 72 h.
For assay [14], the system named is HepG2. The assay can be described thus: Cytotoxicity against human HepG2 cells assessed as inhibition of cell growth incubated for 72 hrs by SRB assay. Particulars: HepG2, 72 h.
The nature of assay [15]: Cytotoxicity against human AML1 cells expressing FLT3-ITD mutant assessed as cell viability.

Our source for the IC50 values is ChEMBL document CHEMBL5500324, “The potential of marine-derived piperazine alkaloids: Sources, structures and bioactivities” (Eur J Med Chem, 2024).

Structures are written as SMILES. pIC50: −log10 of the molar value. In brackets after ≈: the same amount, converted by molar mass.

Take `COc1ccc2c3c([nH]c2c1)[C@H](C=C(C)C)N1C(=O)[C@@H]2CCCN2C(=O)[C@]1(O)[C@H]3O`: the pIC50 was 5.74 in the assay with U-937 and 5.18 with PC-3.
In the same order, the values of `COc1ccc2c3c(n(CC=C(C)C)c2c1)[C@H](C=C(C)C)N1C(=O)[C@@H]2CCCN2C(=O)[C@]1(O)[C@H]3O` are 4.85 and 4.36.
With `CC1(C)C=Cc2c(ccc3c2N(O)C(=O)[C@@]32C[C@@]34NC(=O)[C@]5(CCCN5C3=O)C[C@H]4C2(C)C)O1`, the IC50 in the assay on HeLa [1] was found to be 27 µg/mL (≈ 58.2 µM); in the assay on L1210 it was 29 µg/mL (≈ 62.6 µM).
Turning to `CN1C[C@@H](c2c[nH]c3cc(Br)ccc23)NC[C@@H]1c1c[nH]c2cc(Br)ccc12`, the negative-log IC50 (pIC50) with A549 [2] is 5.51; in the assay with HT-29 it was 5.48; in the assay with MDA-MB-231, 5.42.
With `C[C@H]1CCN2C[C@]34CC5(C(=O)Nc6c5ccc5c6OC=CC(C)(C)O5)C(C)(C)[C@@H]3C[C@]12C(=O)N4C` (some centres not stated), the pIC50 in the assay on Bel-7402 was 5.72.
For the molecule `CS[C@@]12CC3=CC=C[C@H](OC(C)=O)[C@H]3N1C(=O)[C@]1(SC)CC3=CC=C[C@H](O)[C@H]3N1C2=O`, the half-inhibitory concentration (IC50) in the assay with HepG2 [3] stood at 21 µg/mL (≈ 45.6 µM).
Consider `C[C@H]1CCN2C[C@]34CC5(C(=O)Nc6c5cc(O)c5c6OC=CC(C)(C)O5)C(C)(C)[C@@H]3C[C@]12C(=O)N4C` (some centres not stated), for which the pIC50 with Bel-7402 is 5.48.
`COc1ccc(C[C@H]2NC(=O)[C@@H](CC(C)C)NC2=O)cc1O`: the IC50 with A549 [4] is 35.4 µg/mL (≈ 116 µM); in the assay on HCT-116 [5] it was 75.4 µg/mL (≈ 246 µM).
As for `CC[C@H](C)[C@]1(O)NC(=O)[C@@H](Cc2ccccc2)N2C(=O)C3=C(NC21)OC=CC=C3` (some centres not stated), the figures for the pIC50 in the assay on A549 [6] and with HeLa [7] were 4.21 and 3.94, respectively.
With `CS[C@@]12CC3=CC=CC[C@H]3N1C(=O)[C@]1(SC)CC3=CC=C[C@H](OC(C)=O)[C@H]3N1C2=O`, the IC50 in the assay with HepG2 [3] is 48 µg/mL (≈ 108 µM).
As to `CC(=O)O[C@H]1C=COC=C2C[C@@]34SS[C@]5(Cc6ccccc6N5C3=O)C(=O)N4[C@@H]21`, the pIC50 was 4.28 in the assay with HCT-116 [8], 4.54 in the assay with AGS, 4.64 in the assay on A549 [9] and 4.51 with MCF7 [10].
As for `CN1C(=O)[C@]2(S)CC3=CC=C[C@H](O)[C@H]3N2C(=O)[C@]1(S)CO`, the pIC50 was 5.90 in the assay with HEK293, 6.37 in the assay with HCT-116 [11] and 6.39 in the assay with RKO.
Turning to `CN1C(=O)[C@@]23CSC4=C(C(=O)c5ccccc5C4=O)N2C[C@@H]1CO3`, the pIC50 in the assay on SF-268 is 4.92; with MCF7 [12] it was 4.68; with A549 [13] it was 4.87; in the assay on HepG2 [14], 4.92.
On to `CC1(C)C=Cc2c(ccc3c2N[C@@]24N5C(=O)[C@@H]6CCCN6C(=O)[C@]5(O)C[C@@]32O[C@H](CO)C4(C)C)O1`, for which the pIC50 in assay [15] was 5.14.
For `CS[C@@]12CC3=CC=C[C@H](OC(C)=O)[C@H]3N1C(=O)[C@]1(SC)CC3=CC=C[C@H](OC(C)=O)[C@H]3N1C2=O`, the IC50 in the assay on HepG2 [3] is 42 µg/mL (≈ 83.6 µM).
Take `C=CC(C)(C)[C@]1(C[C@H]2NC(=O)[C@H]3CCCN3C2=O)C(=O)Nc2c1ccc1c2C=CC(C)(C)O1`: the IC50 in the assay with HeLa [1] came out at 50 µg/mL (≈ 111 µM); in the assay on L1210, 22 µg/mL (≈ 48.9 µM).
